Results from US20260256827A1, “Methods for treating lower back pain with hyaluronic acid” (priority 2023, published 2026).

Legend:
Assay type in all cases: in vivo, human
chronic low back pain = assay: Example 4: Hyalgan injections, person, pain severity; details: before Hyalgan
Method: (§1) In the Examples, unless otherwise specified, pain severity was assessed using a visual analog numerical rating scale ranging from 0 (no pain) to 10 (worst pain possible), and hyaluronic acid (HA) injections (Hyalgan™, 10 mg/mL, MW: 500,000 to 730,000 Daltons in 2 mL pre-filled syringes) were administered using a 30 gauge, ½″ needle.
Hyaluronic acid injections were administered in the form of Hyalgan ([…]) along the lateral margin of the left PSIS (two injections; 1 mL each). […] […] received subsequent injections on this visit: again two injections of 1 mL each along the lateral margins of […] left PSIS.

[1] = system: chronic lower back pain with enthesopathy; assay: Example 3: HA injections, patient, pain severity on visual analog numerical rating scale; details: tramadol and cyclobenzaprine together, before HA
Method: as §1

[2] = system: peripheral neuropathy foot pain; assay: Example 2 patient: treatment of peripheral neuropathy / foot pain; details: 75 mg bid from Nov. 9, 2023
Method: Beginning on Oct. 2, 2023, the patient was treated for peripheral neuropathy lidocaine/prilocaine 2.5% cream applied to their feet bilaterally. […] 8, 2024.

[3] = system: chronic, bilateral lower back pain; assay: Example 2: HA injections, patient, pain severity on visual analog numerical rating scale; details: 75 mg bid from Nov. 9, 2023; recurrence reported Jan. 8, 2024
Method: as §1
On Oct. 5, 2023, a patient reported chronic, bilateral lower back pain, and more recent onset of pain in their feet that slowly spread to their lower leg, but mostly resides on the plantar surface of their feet. The lower back pain severity was 7/10 (between severe and very severe) at rest, and up to 9/10 (between very severe and worse pain possible) after standing all day.
On Oct. […] The injection locations were determined by findings of focal tenderness of the palpated sites illustrated in FIG. 1.
On Oct. 12, 2023, patient reported maximum lower back pain severity of 5-6/10 (severe). […] These injection locations were again determined by findings of focal tenderness of palpated sites illustrated in FIG. 1.
On Jan. […] These injection locations were again determined by findings of focal tenderness of palpated sites illustrated in FIG. 1.
On Mar. […] These injection locations were again determined by findings of focal tenderness of palpated sites illustrated in FIG. 1.

| Compound | benefit of prior treatment for low back pain (chronic low back pain) | benefit of ongoing treatment for lower back pain [1] | effect on foot pain [2] | effect on recurrence of lower back pain [3] |
| --- | --- | --- | --- | --- |
| CC(C)Cc1ccc(C(C)C(=O)O)cc1 (stereo not drawn) [ibuprofen] | without benefit |  |  |  |
| COc1cccc(C2(O)CCCCC2CN(C)C)c1 (stereo not drawn) [tramadol] |  | helped only marginally |  |  |
| CN(C)CCC=C1c2ccccc2C=Cc2ccccc21 [cyclobenzaprine] | without benefit | helped only marginally |  |  |
| CC(C)C[C@H](CN)CC(=O)O [pregabalin] |  |  | helpful | did not prevent the recurrence |
